Data from BindingDB's records for doi:10.1016/j.bmc.2018.06.029 (East China University of Science & Technology, 2018).

What follows are compounds tested against Tyrosine-protein kinase SYK (Homo sapiens) (UniProt P43405) (assay: Inhibition of SYK (unknown origin) using FAM-labeled peptide as substrate preincubated for 10 mins followed by substrate addition measured after 25 mins).

IC50 | Compound
14.2 µM | COc1cc(Nc2nc(N3CCC(NC(=O)c4ccc(C(=O)O)cn4)C3)nc3c2COC3)cc(OC)c1OC (stereo unspecified)
> 50 µM | COCCCNc1nc(N2CCC(NC(=O)c3ccc(C(=O)O)cn3)C2)nc2c1COC2 (stereo unspecified)
32.1 µM | COc1ccc(Nc2nc(N3CCC(NC(=O)c4ccc(C(=O)O)cn4)C3)nc3c2COC3)cc1 (stereo unspecified)
23.7 µM | COc1ccc(Nc2nc(N3CCC(NC(=O)c4ccc(C(=O)O)cn4)C3)nc3c2COC3)cc1OC (stereo unspecified)
20.9 µM | Cc1ccc(Nc2nc(N3CCC(NC(=O)c4ccc(C(=O)O)cn4)C3)nc3c2COC3)cc1 (stereo unspecified)
> 50 µM | COC(=O)c1ccc(C(=O)NC2CCN(c3nc4c(c(Nc5ccc(OC)c(OC)c5)n3)CCC4)C2)cc1 (stereo unspecified)
> 50 µM | CCCCCNc1nc(N2CCC(NC(=O)c3ccc(C(=O)O)cn3)C2)nc2c1COC2 (stereo unspecified)
25.3 µM | COc1ccc(Nc2nc(N3CCC(NC(=O)c4ccc(C(=O)O)cc4)C3)nc3c2CCC3)cc1OC (stereo unspecified)
11.4 µM | CCCCCCCNc1nc(N2CCC(NC(=O)c3ccc(C(=O)O)cn3)C2)nc2c1COC2 (stereo unspecified)

Further lines, the compound ahead of its results:

Compound | IC50
CCc1ccc(Nc2nc(N3CCC(NC(=O)c4ccc(C(=O)O)cn4)C3)nc3c2COC3)cc1 (stereo unspecified) | 19.2 µM
CCOCCCNc1nc(N2CCC(NC(=O)c3ccc(C(=O)O)cn3)C2)nc2c1COC2 (stereo unspecified) | > 50 µM
O=C(O)c1ccc(C(=O)NC2CCN(c3nc4c(c(NC5CCCCC5)n3)COC4)C2)nc1 (stereo unspecified) | 13.5 µM
O=C(O)c1ccc(C(=O)NC2CCN(c3nc4c(c(Nc5ccc6c(c5)OCCO6)n3)COC4)C2)nc1 (stereo unspecified) | 20.3 µM
Cc1ccc(Nc2nc(N3CCC(NC(=O)c4ccc(C(=O)O)cn4)C3)nc3c2COC3)cc1C (stereo unspecified) | 15.6 µM
CCCCCCNc1nc(N2CCC(NC(=O)c3ccc(C(=O)O)cn3)C2)nc2c1COC2 (stereo unspecified) | 9.7 µM
COc1cc(Nc2nc(N3CCC(NC(=O)c4ccc(C(=O)O)cn4)C3)nc3c2COC3)cc(OC)c1 (stereo unspecified) | 20.9 µM
